Here are results for six molecules from patent publication US4093722A, “Sulfonylimidazolidone substituted cephalosporins, antibacterial compositions containing them, and methods of combatting bacteria employing them” (Bayer Aktiengesellschaft, priority 1974, dated 1978).

As usually defined, the ED50 is the midpoint of the dose-response relation. A higher ED50 goes with weaker potency.

One test relates to Providencia. The test is described as follows: In vitro turbidity test (Muller-Hinton broth). The class given is cell-based. Conditions: 100 μg/ml, 24 hours incubation.
A further test concerns Haemophilis influenzae. The test is described as follows: In vitro turbidity test (Muller-Hinton broth). The note with it: 100 μg/ml, 24 hours incubation. The class given is cell-based.
In test [1] the test system is Neisseria catarrhalis sp. The test is described as follows: In vitro turbidity test (Muller-Hinton broth). It counts as cell-based. The note with it: 100 μg/ml, 24 hours incubation.
The subject of test [2] is Enterobacter aerogenes sp. The test is described as follows: In vitro turbidity test (Muller-Hinton broth). It counts as cell-based. The note with it: 100 μg/ml, 24 hours incubation.
For a further test, the system named is Klebsiella. As to the kind of experiment: Animal experiments with white mice (intraperitoneal infection). The class given is in vivo, white mice of strain CF1 infected with Klebsiella. Conditions: sc, white mice CF1, subcutaneous, 1 administration 30 minutes after infection (1 × dose), 50% survive after 24 hours. The procedure:
(§1) The white mice of strain CF1 were infected intraperitoneally with the species of bacteria indicated.
(§2) Determination of the ED50 after 24 hours
(§3) Therapy: 1 administration 30 minutes after infection.
(§4) The ED50 is the dose at which 50% of the infected animals still survive after 24 hours.

The test system of the next test is Escherichia coli BE. The test is described as follows: In vitro turbidity test (Muller-Hinton broth). The class given is cell-based. The note with it: 100 μg/ml, 24 hours incubation.
The test system of test [3] is Pasteurella pseudotuberculosis. It counts as cell-based. Conditions: 100 μg/ml, 24 hours incubation.
A short description of test [4]: Antibiotic activity of electropherogram spot (germ not stated). It counts as cell-based.
In test [5] the test system is Diplococcus pneumoniae sp. As to the kind of experiment: In vitro turbidity test (Muller-Hinton broth). It counts as cell-based. Conditions: 100 μg/ml, 24 hours incubation.
Test [6] relates to Corynebacterium pyogenes M. The test is described as follows: In vitro turbidity test (Muller-Hinton broth). It counts as cell-based. Conditions: 100 μg/ml, 24 hours incubation.
The subject of the next test is Klebsiella pneumoniae. As to the kind of experiment: In vitro turbidity test (Muller-Hinton broth). The class given is cell-based. Conditions: 100 μg/ml, 24 hours incubation.
Test [7] concerns Proteus, indole negative and indole positive sp. As to the kind of experiment: In vitro turbidity test (Muller-Hinton broth). It counts as cell-based. The note with it: 100 μg/ml, 24 hours incubation.
In test [8] the test system is Staphylococcus aureus 133. As to the kind of experiment: Animal experiments with white mice (intraperitoneal infection). Conditions: Staphylococcus aureus, 133, sc; white mice CF1, subcutaneous, 1 administration 30 minutes after infection (1 × dose); 50% survive after 24 hours. The class given is in vivo, white mice of strain CF1 infected with Staphylococcus aureus. The protocol: as §1, §2, §3, §4

For another test, the system named is Salmonella sp. As to the kind of experiment: In vitro turbidity test (Muller-Hinton broth). It counts as cell-based. Conditions: 100 μg/ml, 24 hours incubation.
A further test has as its system Brucella sp. It counts as cell-based. The note with it: 100 μg/ml, 24 hours incubation.
The subject of test [9] is Streptococcus pyogenes W. The test is described as follows: In vitro turbidity test (Muller-Hinton broth). Conditions: 100 μg/ml, 24 hours incubation. The class given is cell-based.
Another test relates to Shigella sp. The test is described as follows: In vitro turbidity test (Muller-Hinton broth). The class given is cell-based. The note with it: 100 μg/ml, 24 hours incubation.
The next test relates to Enterococcus sp. As to the kind of experiment: In vitro turbidity test (Muller-Hinton broth). The class given is cell-based. Conditions: 100 μg/ml, 24 hours incubation.
A further test has as its system Serratia marcescens. As to the kind of experiment: In vitro turbidity test (Muller-Hinton broth). It counts as cell-based. The note with it: 100 μg/ml, 24 hours incubation.
The test system of test [10] is Bordetella bronchiseptica. As to the kind of experiment: In vitro turbidity test (Muller-Hinton broth). Conditions: 100 μg/ml, 24 hours incubation. It counts as cell-based.
Test [11] deals with Corynebacterium diphteriae gravis. As to the kind of experiment: In vitro turbidity test (Muller-Hinton broth). The class given is cell-based. The note with it: 100 μg/ml, 24 hours incubation.
The subject of the next test is Lactobacillus sp. As to the kind of experiment: In vitro turbidity test (Muller-Hinton broth). The class given is cell-based. The note with it: 100 μg/ml, 24 hours incubation.
In the next test the test system is Escherichia coli C 165. As to the kind of experiment: Animal experiments with white mice (intraperitoneal infection). The note with it: C165, sc, white mice CF1, subcutaneous, 1 administration 30 minutes after infection (1 × dose), 50% survive after 24 hours. It counts as in vivo, white mice of strain CF1 infected with Escherichia coli. The procedure: as §1, §2, §3, §4

Test [12] relates to Staphylococcus aureus 133. As to the kind of experiment: In vitro turbidity test (Muller-Hinton broth). The class given is cell-based. Conditions: 100 μg/ml, 24 hours incubation.
A further test deals with Pseudomonas aeruginosa. As to the kind of experiment: Antibiotic activity of electropherogram spot. It counts as cell-based.
A further test has as its system Escherichia coli. As to the kind of experiment: Antibiotic activity of electropherogram spot. The class given is cell-based.
In another test the test system is B. subtilis. As to the kind of experiment: Antibiotic activity of electropherogram spot. It counts as cell-based.
For test [13], the system named is bacteria from the genus Pseudomonades. Conditions: known art; cited from earlier work.

`CC(=O)OCC1=C(C(=O)[O-])N2C(=O)C(NC(=O)[C@H](NC(=O)N3CCN(S(C)(=O)=O)C3=O)c3ccccc3)[C@H]2SC1.[Na+]` (stereo partly drawn) [Example 6, Sodium 7-{D-α-[(2-oxo-3-mesyl-imidazolidin-1-yl)-carbonylamino]-phenylacetamido}-3-acetoxymethyl-ceph-3-em-4-carboxylate]: the freedom from turbidity result (in the test with Providencia; with Haemophilis influenzae; in [1]; in [2]; in the test with Escherichia coli BE; in test [3]) was “free from turbidity” in each case. Moreover, the freedom from turbidity result (in [5]; in test [6]; in the test with Klebsiella pneumoniae; in test [7]; with Salmonella sp.; in the test with Brucella sp.) was “free from turbidity” in each case. Moreover, the freedom from turbidity entry (in test [9]; in the test with Shigella sp.; in the test with Enterococcus sp.; in the test with Serratia marcescens; in test [10]; in test [11]) was “free from turbidity” each time. The freedom from turbidity result (in the test with Lactobacillus sp.; in test [12]) was “free from turbidity” in each case. Also, the 50% effective dose (ED50) was 150 mg/kg in the test with Klebsiella, 10 mg/kg in test [8] and 200 mg/kg with Escherichia coli C 165. In addition, the “antibiotic activity of the electropherogram spot” value (shortened to “antibiotic activity”) in test [4] is reported as “only shows one spot with antibiotic activity”.
For the molecule `CC(=O)OCC1=C(C(=O)[O-])N2C(=O)C(NC(=O)[C@H](NC(=O)N3CCN(C)C3=O)c3ccccc3)[C@H]2SC1.[Na+]` (stereo partly drawn) [Example 3, sodium 7-{D-α-[(3-methyl-2-oxo-imidazolidin-1-yl)-carbonylamino]-phenylacetamido}-3-acetoxymethyl-ceph-3-em-4-carboxylate], the freedom from turbidity result (in the test on Providencia; in the test on Haemophilis influenzae; in [1]; in test [2]; in the test on Escherichia coli BE; in [3]) was “free from turbidity” in each case. In addition, the freedom from turbidity result (in test [5]; in test [6]; with Klebsiella pneumoniae; in test [7]; in the test on Salmonella sp.; with Brucella sp.) was “free from turbidity” in each case. Moreover, the freedom from turbidity entry (in [9]; with Shigella sp.; in the test on Enterococcus sp.; in the test with Serratia marcescens; in test [10]; in test [11]) was “free from turbidity” throughout. Besides, the freedom from turbidity result (with Lactobacillus sp.; in test [12]) was “free from turbidity” throughout.
As for `CC1=C(C(=O)O)N2C(=O)C(NC(=O)[C@H](NC(=O)N3CCNC3=O)c3ccccc3)[C@H]2SC1` (stereo partly drawn) [Example 2, 7-{D-α-[(2-Oxo-imidazolidin-1-yl)-carbonylamino]-phenylacetamido}-3-methyl-ceph-3-em-4-carboxylic acid], the “antibiotic activity” value in [4] is “only one spot with antibiotic activity”.
For `CC(=O)OCC1=C(C(=O)[O-])N2C(=O)C(NC(=O)[C@H](NC(=O)N3CCNC3=O)c3ccccc3)[C@H]2SC1.[Na+]` (stereo partly drawn) [Example 1, sodium 7-{D-α-[(2-oxo-imidazolidin-1-yl)-carbonylamino]-phenylacetamido}-3-acetoxymethyl-ceph-3-em-4-carboxylate], the “antibiotic activity” value in the test with Pseudomonas aeruginosa, with Escherichia coli and in the test on B. subtilis was “only one spot with antibiotic activity” throughout.
Regarding `CC(=O)OCC1=C(C(=O)[O-])N2C(=O)C(NC(=O)[C@H](NC(=O)N3CCN(S(=O)(=O)c4ccccc4)C3=O)c3ccccc3)[C@H]2SC1.[Na+]` (stereo partly drawn) [Example 7, Sodium 7-{D-α-[(2-oxo-3-phenylsulphonyl-imidazolidin-1-yl)-carbonylamino]-phenylacetamido}-3-acetoxymethyl-ceph-3-em-4-carboxylate], the freedom from turbidity result (in the test on Providencia; in the test on Haemophilis influenzae; in test [1]; in test [2]; with Escherichia coli BE; in test [3]) was “free from turbidity” in each case. Besides, the freedom from turbidity entry (in test [5]; in test [6]; in the test with Klebsiella pneumoniae; in test [7]; in the test on Salmonella sp.; with Brucella sp.) was “free from turbidity” each time. Also, the freedom from turbidity result (in [9]; with Shigella sp.; in the test with Enterococcus sp.; in the test with Serratia marcescens; in test [10]; in test [11]) was “free from turbidity” in each case. The freedom from turbidity entry (in the test on Lactobacillus sp.; in test [12]) was “free from turbidity” each time.
As for `CC(=O)OCC1=C(C(=O)O)N2C(=O)C(NC(=O)C(N)c3ccccc3)[C@H]2SC1` (stereo partly drawn) [cephaloglycine, 7-(α-amino-phenylacetamido)-3-acetoxymethyl-ceph-3-em-4-carboxylic acid], the “activity against infections caused by Pseudomonades” value in [13] is on record as “not active”.
